≈ marks a conversion by molar mass, not a printed value. Calls of active or inactive are those of the source. The calls are words filed in the database; no cut-off is given here.
Columns and labels:
[1] = system: Trypanosoma brucei rhodesiense; experiment: Antitrypanosomal activity against wild-type Trypanosoma brucei rhodesiense STIB900 infected in NMRI mouse assessed as cure from infection at 50 mg/kg, po for 4 days; format: functional, organism-based; parameters: dose 50 mg/kg
[2] = system: Trypanosoma brucei brucei; experiment: Antitrypanosomal activity against Trypanosoma brucei brucei GVR35 infected in NMRI mouse CNS model assessed as survival of mouse at 50mg/kg, po for 10 days; format: functional
[3] = system: Trypanosoma brucei brucei; experiment: Antitrypanosomal activity against Trypanosoma brucei brucei GVR35 infected in NMRI mouse CNS model assessed as cure from infection at 25 mg/kg, po for 10 days; format: functional, organism-based; parameters: dose 25 mg/kg
[4] = system: Trypanosoma brucei brucei; experiment: Antitrypanosomal activity against Trypanosoma brucei brucei GVR35 infected in NMRI mouse CNS model assessed as survival of mouse at 25 mg/kg, po for 10 days; format: functional
[5] = system: Trypanosoma brucei brucei; experiment: Antitrypanosomal activity against Trypanosoma brucei brucei GVR35 infected in NMRI mouse CNS model assessed as survival of mouse at 50 mg/kg, po for 5 days; format: functional
[6] = system: Trypanosoma brucei brucei; experiment: Antitrypanosomal activity against Trypanosoma brucei brucei GVR35 infected in NMRI mouse CNS model assessed as survival of mouse at 25 mg/kg, po for 5 days; format: functional
[7] = system: Trypanosoma brucei rhodesiense; experiment: Antitrypanosomal activity against wild-type Trypanosoma brucei rhodesiense STIB900 infected in NMRI mouse assessed as survival of mouse at 25 mg/kg, po for 4 days; format: functional
[8] = system: Trypanosoma brucei brucei; experiment: Antitrypanosomal activity against Trypanosoma brucei brucei GVR35 infected in NMRI mouse CNS model assessed as cure from infection at 50 mg/kg, po for 5 days; format: functional, organism-based; parameters: dose 50 mg/kg
[9] = system: Trypanosoma brucei rhodesiense; experiment: Antitrypanosomal activity against wild-type Trypanosoma brucei rhodesiense STIB900 infected in NMRI mouse assessed as survival of mouse at 50 mg/kg, po for 4 days; format: functional
[10] = system: Trypanosoma brucei rhodesiense; experiment: Antitrypanosomal activity against wild-type Trypanosoma brucei rhodesiense STIB900 infected in NMRI mouse assessed as cure from infection at 25 mg/kg, po for 4 days; format: functional, organism-based; parameters: dose 25 mg/kg
[11] = system: Trypanosoma brucei brucei; experiment: Antitrypanosomal activity against Trypanosoma brucei brucei GVR35 infected in NMRI mouse CNS model assessed as survival of mouse at 100 mg/kg, po for 5 days; format: functional
[12] = system: Trypanosoma brucei brucei; experiment: Antitrypanosomal activity against Trypanosoma brucei brucei GVR35 infected in NMRI mouse CNS model assessed as cure from infection at 25 mg/kg, po for 5 days; format: functional, organism-based; parameters: dose 25 mg/kg
[13] = system: Trypanosoma brucei brucei; experiment: Antitrypanosomal activity against Trypanosoma brucei brucei GVR35 infected in NMRI mouse CNS model assessed as survival of mouse at 10 mg/kg, ip for 10 days; format: functional; conditions: route intraperitoneal
[14] = system: Trypanosoma brucei brucei; experiment: Antitrypanosomal activity against Trypanosoma brucei brucei GVR35 infected in NMRI mouse CNS model assessed as survival of mouse at 20 mg/kg, ip for 10 days; format: functional; conditions: route intraperitoneal
[15] = system: Trypanosoma brucei brucei; experiment: Antitrypanosomal activity against Trypanosoma brucei brucei GVR35 infected in NMRI mouse CNS model assessed as cure from infection at 10 mg/kg, ip for 10 days; format: functional, organism-based; parameters: dose 10 mg/kg
[16] = Ratio of IC50 for Trypanosoma brucei gambiense K03048 to IC50 for wild-type Trypanosoma brucei rhodesiense STIB900; format: functional
[17] = system: Trypanosoma brucei brucei; experiment: Antitrypanosomal activity against Trypanosoma brucei brucei GVR35 infected in NMRI mouse CNS model assessed as cure from infection at 20 mg/kg, ip for 10 days; format: functional, organism-based; parameters: dose 20 mg/kg
[18] = system: Trypanosoma brucei brucei; experiment: Antitrypanosomal activity against Trypanosoma brucei brucei GVR35 infected in NMRI mouse CNS model assessed as survival of mouse at 20 mg/kg, ip for 5 days; format: functional; conditions: route intraperitoneal
[19] = system: Trypanosoma brucei gambiense; experiment: Antitrypanosomal activity against Trypanosoma brucei gambiense ITMAP141267 by Alamar blue assay; format: functional, organism-based
[20] = system: Trypanosoma brucei rhodesiense; experiment: Antitrypanosomal activity against wild-type Trypanosoma brucei rhodesiense STIB900 infected in NMRI mouse assessed as survival of mouse at 20 mg/kg, ip for 4 days; format: functional; conditions: route intraperitoneal
[21] = system: Trypanosoma brucei gambiense; experiment: Antitrypanosomal activity against Trypanosoma brucei gambiense K03048 by Alamar blue assay; format: functional, organism-based
[22] = system: Trypanosoma brucei rhodesiense; experiment: Antitrypanosomal activity against wild-type Trypanosoma brucei rhodesiense STIB900 infected in NMRI mouse assessed as survival of mouse at 0.5 mg/kg, ip for 4 days; format: functional; conditions: route intraperitoneal
[23] = system: Trypanosoma brucei brucei; experiment: Antitrypanosomal activity against Trypanosoma brucei brucei AT1KO by Alamar blue assay; format: functional, organism-based
[24] = Ratio of IC50 for Trypanosoma brucei gambiense STIB930 to IC50 for wild-type Trypanosoma brucei rhodesiense […]; format: functional
[25] = system: Trypanosoma brucei brucei; experiment: Ratio of IC50 for Trypanosoma brucei brucei AT1KO to IC50 for Trypanosoma brucei brucei BS221; format: functional
[26] = system: Trypanosoma brucei rhodesiense; experiment: Ratio of IC50 for pentamidine-resistant Trypanosoma brucei rhodesiense STIB900 to IC50 for wild-type Trypanosoma brucei rhodesiense STIB900; format: functional
[27] = system: Trypanosoma brucei brucei; experiment: Antitrypanosomal activity against Trypanosoma brucei brucei BS221 by Alamar blue assay; format: functional, organism-based
[28] = system: Trypanosoma brucei gambiense; experiment: Antitrypanosomal activity against Trypanosoma brucei gambiense STIB930 by Alamar blue assay; format: functional, organism-based
[29] = Ratio of IC50 for Trypanosoma brucei gambiense ITMAP141267 to IC50 for wild-type Trypanosoma brucei rhodesiense […]; format: functional
[30] = system: Trypanosoma brucei rhodesiense; experiment: Antitrypanosomal activity against pentamidine-resistant Trypanosoma brucei rhodesiense STIB900 by Alamar blue assay; format: functional, organism-based
[31] = system: Trypanosoma brucei gambiense; experiment: Ratio of IC50 for Trypanosoma brucei gambiense K03048 to IC50 for Trypanosoma brucei gambiense STIB930; format: functional
[32] = system: Trypanosoma brucei rhodesiense; experiment: Antitrypanosomal activity against melasoprol-resistant Trypanosoma brucei rhodesiense STIB900 by Alamar blue assay; format: functional, organism-based
[33] = system: Trypanosoma brucei rhodesiense; experiment: Antitrypanosomal activity against wild-type Trypanosoma brucei rhodesiense STIB900 infected in NMRI mouse assessed as cure from infection at 10 mg/kg, ip for 4 days; format: functional, organism-based; parameters: dose 10 mg/kg
[34] = system: Trypanosoma brucei rhodesiense; experiment: Antitrypanosomal activity against wild-type Trypanosoma brucei rhodesiense STIB900 infected in NMRI mouse assessed as cure from infection at 20 mg/kg, ip for 4 days; format: functional, organism-based; parameters: dose 20 mg/kg
[35] = system: Trypanosoma brucei rhodesiense; experiment: Ratio of IC50 for melasoprol-resistant Trypanosoma brucei rhodesiense STIB900 to IC50 for wild-type Trypanosoma brucei rhodesiense […]; format: functional
[36] = system: Trypanosoma brucei brucei; experiment: Antitrypanosomal activity against Trypanosoma brucei brucei GVR35 infected in NMRI mouse CNS model assessed as survival of mouse at 75 mg/kg, po for 5 days; format: functional
[37] = system: Trypanosoma brucei brucei; experiment: Antitrypanosomal activity against Trypanosoma brucei brucei GVR35 infected in NMRI mouse CNS model assessed as cure from infection at 100 mg/kg, po for 5 days; format: functional, organism-based; parameters: dose 100 mg/kg
[38] = system: Trypanosoma brucei rhodesiense; experiment: Antitrypanosomal activity against wild-type Trypanosoma brucei rhodesiense STIB900 infected in NMRI mouse assessed as survival of mouse at 5 mg/kg, po for 4 days; format: functional
[39] = system: Trypanosoma brucei rhodesiense; experiment: Antitrypanosomal activity against wild-type Trypanosoma brucei rhodesiense STIB900 infected in NMRI mouse assessed as cure from infection at 5 mg/kg, po for 4 days; format: functional, organism-based; parameters: dose 5 mg/kg
[40] = system: Trypanosoma brucei rhodesiense; experiment: Antitrypanosomal activity against wild-type Trypanosoma brucei rhodesiense STIB900 infected in NMRI mouse assessed as survival of mouse at 10 mg/kg, ip for 4 days; format: functional; conditions: route intraperitoneal
[41] = system: Trypanosoma brucei rhodesiense; experiment: Antitrypanosomal activity against wild-type Trypanosoma brucei rhodesiense STIB900 infected in NMRI mouse assessed as survival of mouse at 5 mg/kg, ip for 4 days; format: functional; conditions: route intraperitoneal
[42] = system: Trypanosoma brucei brucei; experiment: Antitrypanosomal activity against Trypanosoma brucei brucei GVR35 infected in NMRI mouse CNS model assessed as cure from infection at 20 mg/kg, ip for 5 days; format: functional, organism-based; parameters: dose 20 mg/kg
[43] = system: Trypanosoma brucei rhodesiense; experiment: Antitrypanosomal activity against wild-type Trypanosoma brucei rhodesiense STIB900 infected in NMRI mouse assessed as cure from infection at 0.5 mg/kg, ip for 4 days; format: functional, organism-based; parameters: dose 0.5 mg/kg
[44] = system: Trypanosoma brucei rhodesiense; experiment: Antitrypanosomal activity against wild-type Trypanosoma brucei rhodesiense STIB900 infected in NMRI mouse assessed as survival of mouse at 2.5 mg/kg, ip for 4 days; format: functional; conditions: route intraperitoneal
[45] = system: Trypanosoma brucei rhodesiense; experiment: Antitrypanosomal activity against wild-type Trypanosoma brucei rhodesiense STIB900 by Alamar blue assay; format: functional, organism-based

Row | Compound | MSD [5] | MSD [7] | Activity [10] | MSD [11] | MSD [14] | Ratio IC50 [16] | MSD [18] | IC50 [19] | MSD [20] | IC50 [21] | MSD [22] | IC50 [23] | Ratio IC50 [24] | Ratio IC50 [25] | Ratio IC50 [26] | IC50 [27] | IC50 [28] | Ratio IC50 [29] | IC50 [30] | Ratio IC50 [31] | also measured
1 | CONC(=N)c1ccc(-c2ccc(-c3ccc(C(=N)NOC)cc3)o2)cc1 [PAFURAMIDINE] | >153.6 days | >60 days | Active | >167.8 days | – | – | – | – | – | – | – | – | – | – | – | – | – | – | – | – | Activity [1]: Active; MSD [2]: >172.2 days; Activity [3]: inactive; MSD [4]: >146.6 days; MSD [6]: 75.4 days; Activity [8]: inactive; MSD [9]: >60 days; Activity [12]: inactive
2 | N=C(N)c1ccc(-c2ccc(-c3ccc(C(=N)N)cn3)o2)nc1 | – | – | – | – | >180 days | 6.1 | >132.3 days | 0.0162 µg/mL (≈ 0.0529 µM) | >60 days | 0.0395 µg/mL (≈ 0.129 µM) | >31 days | 0.106 µg/mL (≈ 0.347 µM) | 5.4 | 17.8 | 10.5 | 6 ng/mL (≈ 0.0196 µM) | 0.0351 µg/mL (≈ 0.115 µM) | 2.5 | 0.0679 µg/mL (≈ 0.222 µM) | 14 | MSD [13]: 95.6 days; Activity [15]: inactive; Activity [17]: Active; IC50 [32]: 0.0643 µg/mL (≈ 0.21 µM); Activity [33]: Active; Activity [34]: Active; Ratio IC50 [35]: 10
3 | CO/N=C(\N)c1ccc(-c2ccc(-c3ccc(/C(N)=N\O)cn3)o2)cc1 | >157.2 days | >60 days | Active | >180 days | – | – | – | – | – | – | – | – | – | – | – | – | – | – | – | – | MSD [36]: >164.8 days; Activity [37]: Active; MSD [38]: >39.5 days
4 | CO/N=C(/N)c1ccc(-c2ccc(-c3ccc(/C(N)=N/O)cn3)o2)nc1 | – | >61 days | Active | >140.4 days | – | – | – | – | – | – | – | – | – | – | – | – | – | – | – | – | MSD [38]: 29.7 days; Activity [39]: inactive
5 | N=C(N)c1ccc(-c2ccc(-c3ccc(C(=N)N)cn3)o2)cc1 | – | – | – | – | >128.2 days | 3.5 | 102.5 days | 0.0057 µg/mL (≈ 0.0187 µM) | >60 days | 0.0084 µg/mL (≈ 0.0275 µM) | 29 days | 0.0429 µg/mL (≈ 0.14 µM) | 3.5 | 15.4 | 9.6 | 2.8 ng/mL (≈ 0.00917 µM) | 0.0084 µg/mL (≈ 0.0275 µM) | 2.4 | 0.0225 µg/mL (≈ 0.0737 µM) | 14 | MSD [40]: >60 days; MSD [41]: >54.5 days; Activity [42]: inactive; Activity [43]: inactive; MSD [44]: >49 days; IC50 [32]: 0.0292 µg/mL (≈ 0.0956 µM); IC50 [45]: 2.4 ng/mL (≈ 0.00786 µM); Activity [33]: Active; Activity [34]: Active; Ratio IC50 [35]: 12.4

From ChEMBL document CHEMBL1649218, “New treatment option for second-stage African sleeping sickness: in vitro and in vivo efficacy of aza analogs of DB289” (Antimicrob Agents Chemother, 2009)
